The test system of this assay is HIV-1 (strain IIIB). Put plainly: MT4 Cell Assay (antiviral HIV activity, propidium iodide or MTS readout). The class given is cell-based. The following applies: Human immunodeficiency virus 1, IIIB, expected range for the control and standard, tested in every assay, MT4 cells. How it is done: Antiviral HIV activity and compound-induced cytotoxicity were measured in parallel by means of a propidium iodide based procedure in the human T-cell lymphotropic virus transformed cell line MT4. Aliquots of the test compounds were serially diluted in medium (RPMI 1640, 10% fetal calf serum (FCS), and gentamycin) in 96-well plates (Costar 3598) using a Cetus Pro/Pette. Exponentially growing MT4 cells were harvested and centrifuged at 1000 rpm for 10 min in a Jouan centrifuge (model CR 4 12). Cell pellets were resuspended in fresh medium (RPMI 1640, 20% FCS, 20% IL-2, and gentamycin) to a density of 5×10^5 cells/ml. Cell aliquots were infected by the addition of HIV-1 (strain IIIB) diluted to give a viral multiplicity of infection of 100× TCID50. […]
A. For propidium iodide readout, 27 μl of 5% Nonidet40 was added to each well of the incubation plate. […] The plates were analyzed in an automated assay instrument (Screen Machine, Idexx Laboratories). […]
B. For MTS readout, 20 μl CellTiter 96 AQ One Solution reagent (Promega #G3582) was added to each well. At 75 minutes following the addition of MTS reagent, absobance was read at 492 nm using a Tecan Sunrise 96-well plate reader. […]
For each assay plate, the results (relative fluorescence units, rfU, or OD values) of wells containing uninfected cells or infected cells with no compound were averaged, respectively. […]

In patent publication US7812016B2, “Naphthyridine integrase inhibitors” (SmithKline Beecham Corporation, priority 2003, dated 2010) one finds IC50 data, which are given here for one compound.

`Cc1cn([C@H]2C[C@H](N=[N+]=[N-])[C@@H](CO)O2)c(=O)[nH]c1=O` [3′-azido-3′-deoxythymidine] gave an IC50 of 40 to 120 nM.

Usually IC50 stands for the concentration at which inhibition is half-maximal. A high value points to weaker potency in that assay.
